Experimental data published in patent publication US7622506B2, “Naphthalenedione compounds for treating inflammation related disorders and microbial infection” (SunTen Phytotech Co., Ltd., priority 2006, dated 2009).
Where two headings read alike, the source gives them in different places.

Tests used:
[1] = test system: methicillin-resistant Staphylococcus aureus (ATCC33591); assay: Growth inhibition of methicillin-resistant Staphylococcus aureus (ATCC33591); type: cell-based; conditions: Table 5; repeated with various concentrations
From the text: In this example, the inhibition by the aforementioned compounds or extracts on the growth of methicillin-resistant Staphylococcus aureus (ATCC33591) was studied by a method modified from those described in Modugno et al., Antimicrobial Agents and Chemotherapy, 1994, 38: 2362-2368, and Misiek et al., Antimicrobial Agents Chemotherapy, 1973, 3: 40-48.
The above experiments on Staphylococcus aureus and Propionibacterium acnes were repeated using various concentrations of the compounds.

5-Lipoxygenase = target: T1, 5-Lipoxygenase (Homo sapiens, UniProt P09917); assay: Inhibition of 5-Lipoxygenase activity; type: biochemical
T1 sequence (P09917 1-674): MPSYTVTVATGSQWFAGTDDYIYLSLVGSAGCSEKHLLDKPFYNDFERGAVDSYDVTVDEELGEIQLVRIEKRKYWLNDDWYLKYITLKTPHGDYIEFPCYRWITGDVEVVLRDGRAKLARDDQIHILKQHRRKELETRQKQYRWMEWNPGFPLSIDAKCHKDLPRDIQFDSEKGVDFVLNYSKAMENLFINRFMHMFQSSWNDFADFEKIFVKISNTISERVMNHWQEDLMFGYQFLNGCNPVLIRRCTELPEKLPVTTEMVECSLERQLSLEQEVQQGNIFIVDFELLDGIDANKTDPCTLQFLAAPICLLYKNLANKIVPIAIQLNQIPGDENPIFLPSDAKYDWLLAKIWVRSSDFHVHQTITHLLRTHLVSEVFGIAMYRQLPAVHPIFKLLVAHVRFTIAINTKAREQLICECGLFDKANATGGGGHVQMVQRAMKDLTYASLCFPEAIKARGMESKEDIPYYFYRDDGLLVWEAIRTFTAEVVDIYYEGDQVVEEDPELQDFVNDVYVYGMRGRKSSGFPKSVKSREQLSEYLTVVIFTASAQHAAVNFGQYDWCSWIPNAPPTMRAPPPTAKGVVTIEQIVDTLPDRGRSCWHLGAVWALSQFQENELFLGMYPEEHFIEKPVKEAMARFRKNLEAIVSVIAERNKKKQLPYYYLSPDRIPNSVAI
From the text: 5-Lipoxygenase has been known to be a key enzyme in the bio-synthesis of leukotrienes, important mediators in inflammatory and allergic processes. […] The experiment was repeated using various concentrations of the compounds.

[2] = Table 2A, concentration 10 μM, read-out: % Inhibition
[3] = Table 2A, read-out: 5-Lipoxygenase, IC50
[4] = 5-Lipoxygenase, IC50 (μM), Table 2A
[5] = Table 2B, read-out: 5-Lipoxygenase, IC50

Compound	Anti-microbial Activity, effective concentration range, MRSA [1]	inhibition at 10 µM (5-Lipoxygenase; [2])	IC50 (5-Lipoxygenase; [3])	Anti-microbial Activity, effective concentration range, MRSA (μM) [1]	inhibition at 10 µM (5-Lipoxygenase)	other results
CCC(C)C(=O)O[C@H](CC=C(C)C)C1=CC(=O)c2c(O)ccc(O)c2C1=O (some centres unmarked) [MBSK, 1-(5,8-dihydroxy-1,4-dioxo-1,4-dihydronaphthalen-2-yl)-4-methylpent-3-enyl 2-methylbutanoate]	2.7 µM	98%	1.37 µM	–	–	–
CC(C)=CCCC1=CC(=O)c2c(O)ccc(O)c2C1=O [DSK, 5,8-dihydroxy-2-(4-methylpent-3-enyl)naphthalene-1,4-dione]	–	–	–	7.8~26.0 μM	53%	inhibition at 10 µg/mL (5-Lipoxygenase): 64%; IC50 (5-Lipoxygenase; [4]): 7.01 µM; IC50 (5-Lipoxygenase; 5-Lipoxygenase, IC50, Table 2B): 20.1 µM
epigallocatechin-3 gallate [EGCG, reference compound]	–	–	–	–	–	% Inhibition (5-Lipoxygenase; Table 2B, concentration 100 μM): 58%; IC50 (5-Lipoxygenase; [5]): 87.2 µM
CC(C)=CC[C@@H](OC(=O)C=C(C)C)C1=CC(=O)c2c(O)ccc(O)c2C1=O [BSK]	2.8 µM	99%	1.2 µM	–	–	–
Gentamicin [reference compound]	2.1 µM	–	–	–	–	–
Cc1cc(C2CCCCC2)n(O)c(=O)c1 [Ciclpirox Olamine, reference compound]	37.3 µM	–	–	–	–	inhibition at 30 µM (5-Lipoxygenase; Table 2B, concentration 30 μM): 66%; IC50 (5-Lipoxygenase; [5]): 16.9 µM
CC(C)=CC[C@@H](OC(=O)C(C)C)C1=CC(=O)c2c(O)ccc(O)c2C1=O [ISK, (R)-1-(5,8-dihydroxy-1,4-dioxo-1,4-dihydronaphthalen-2-yl)-4-methylpent-3-enyl isobutyrate]	7.7 µM	98%	1.54 µM	–	–	–
CC(=O)O[C@H](CC=C(C)C)C1=CC(=O)c2c(O)ccc(O)c2C1=O [ASK, (R)-1-(5,8-dihydroxy-1,4-dioxo-1,4-dihydronaphthalen-2-yl)-4-methylpent-3-enyl acetate]	–	–	–	0.9~3.0 μM	99%	IC50 (5-Lipoxygenase; [4]): 1.46 µM
CC(C)=CC[C@@H](O)C1=CC(=O)c2c(O)ccc(O)c2C1=O [SK, (R)-5,8-dihydroxy-2-(1-hydroxy-4-methylpent-3-enyl)naphthalene-1,4-dione]	–	–	–	10.4~34.7 μM	101%	IC50 (5-Lipoxygenase): 0.39 µM; inhibition at 1 µM (5-Lipoxygenase): 70%; inhibition at 1 µg/mL (5-Lipoxygenase): 51%; IC50 (5-Lipoxygenase; 5-Lipoxygenase, IC50, Table 2B): 2.93 µM
